{"source": "ChEMBL document CHEMBL5143515", "about": "“Identification of new halogen-containing 2,4-diphenyl indenopyridin-5-one derivative as a boosting agent for the anticancer responses of clinically available topoisomerase inhibitors” (Eur J Med Chem, 2022)", "key": {"[1]": {"assay": "Toxicity in mouse assessed as increase in mean corpuscular volume of RBC at 4 mg/kg", "type": "organism-based, Erythrocyte", "settings": "in vivo"}, "[2]": {"test_system": "HCT-15", "assay": "Antitumor activity against human HCT-15 cells xenografted in female BALB/c nude mouse assessed as decrease in Ki67 expression at 4 mg/kg, ip administered every day for 6 days in combination with etoposide at 2 mg/kg, ip administered every day for 6 days measured by immunohistochemistry analysis", "type": "functional, organism-based", "settings": "time 6.0 day"}, "[3]": {"test_system": "HCT-15", "assay": "Induction of apoptosis in human HCT-15 cells assessed as change in c-caspase 7 level at 2 to 5 uM in presence of 1 nM camptothecin and measured by Western blot analysis", "type": "functional, cell-based", "settings": "dose 2-5 µM"}, "[4]": {"assay": "Toxicity in mouse assessed as reduction in hemoglobin level at 4 mg/kg", "type": "organism-based", "settings": "in vivo"}, "[5]": {"assay": "Toxicity in mouse assessed as reduction in number of white blood cells at 4 mg/kg in presence of 2 mg/kg etoposide", "type": "organism-based", "settings": "in vivo"}, "[6]": {"assay": "Toxicity in mouse assessed as reduction in number of red blood cells at 4 mg/kg", "type": "organism-based", "settings": "in vivo"}, "[7]": {"assay": "Toxicity in mouse assessed as reduction in number of absolute neutrophil count at 4 mg/kg in presence of 2 mg/kg etoposide", "type": "organism-based", "settings": "in vivo"}, "[8]": {"assay": "Toxicity in mouse assessed as reduction in number of absolute neutrophil count at 4 mg/kg", "type": "organism-based", "settings": "in vivo"}, "[9]": {"assay": "Toxicity in mouse assessed as reduction in hemoglobin level at 4 mg/kg administered in combination with 2 mg/kg etoposide", "type": "organism-based", "settings": "in vivo"}, "[10]": {"assay": "Genotoxicity in human HCT-15 cells assessed as production of gamma-H2AX at 2 to 5 uM and measured in presence of 1 nM camptothecin by western blot analysis", "type": "toxicity, cell-based", "settings": "hct-15, 5 µM, dose 2-5 µM"}, "[11]": {"assay": "Genotoxicity in human HCT-15 cells assessed as production of Ub1-gamma-H2AX at 2 to 5 uM and measured by western blot analysis", "type": "toxicity, cell-based", "settings": "hct-15, 5 µM, dose 2-5 µM"}, "[12]": {"assay": "Genotoxicity in human HCT-15 cells assessed as production of Ub1-gamma-H2AX at 2 to 5 uM and measured in presence of 0.2 uM etoposide by western blot analysis", "type": "toxicity, cell-based", "settings": "hct-15, 5 µM, dose 2-5 µM"}, "[13]": {"test_system": "T47D", "assay": "Antiproliferative activity against human T47D cells after 72 hrs by EZ-Cytox colorimetric assay", "type": "functional, cell-based"}, "[14]": {"test_system": "HeLa", "assay": "Antiproliferative activity against human HeLa cells after 72 hrs by EZ-Cytox colorimetric assay", "type": "functional, cell-based"}, "[15]": {"assay": "Cytotoxicity against human MRC5 cells after 72 hrs by EZ-Cytox colorimetric assay", "type": "toxicity, cell-based"}, "[16]": {"target": "T1, DNA topoisomerase 1 (Homo sapiens) (UniProt P11387)", "T1 sequence (whole entry)": "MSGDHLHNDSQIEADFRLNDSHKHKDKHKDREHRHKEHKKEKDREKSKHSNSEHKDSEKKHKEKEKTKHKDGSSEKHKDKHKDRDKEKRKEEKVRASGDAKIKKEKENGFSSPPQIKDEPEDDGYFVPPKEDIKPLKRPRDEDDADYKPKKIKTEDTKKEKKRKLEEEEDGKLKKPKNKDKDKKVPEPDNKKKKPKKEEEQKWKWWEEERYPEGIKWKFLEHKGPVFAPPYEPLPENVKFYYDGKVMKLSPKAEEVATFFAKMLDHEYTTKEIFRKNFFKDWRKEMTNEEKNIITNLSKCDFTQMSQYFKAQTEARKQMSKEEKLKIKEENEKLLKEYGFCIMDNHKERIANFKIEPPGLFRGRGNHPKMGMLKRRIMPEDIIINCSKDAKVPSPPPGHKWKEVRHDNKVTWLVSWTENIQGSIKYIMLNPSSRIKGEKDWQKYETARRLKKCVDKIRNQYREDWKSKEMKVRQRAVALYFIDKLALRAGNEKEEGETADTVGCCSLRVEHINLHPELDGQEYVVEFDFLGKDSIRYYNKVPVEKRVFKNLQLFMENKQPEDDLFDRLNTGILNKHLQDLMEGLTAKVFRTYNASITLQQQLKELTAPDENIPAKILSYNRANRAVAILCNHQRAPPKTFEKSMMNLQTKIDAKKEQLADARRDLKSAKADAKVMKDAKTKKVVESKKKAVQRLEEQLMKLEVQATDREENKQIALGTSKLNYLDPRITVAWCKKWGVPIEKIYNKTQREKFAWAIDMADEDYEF", "assay": "Inhibition of recombinant human topoisomerase 1 assessed as relaxation of supercoiled plasmid pBR322 DNA at 100 uM by agarose gel electrophoresis (reference value: 83.2%)"}, "[17]": {"assay": "Toxicity in mouse assessed as increase in d red cell distribution width at 4 mg/kg administered in combination with 2 mg/kg etoposide", "type": "organism-based", "settings": "in vivo"}, "[18]": {"target": "T1, DNA topoisomerase 1 (Homo sapiens)", "assay": "Inhibition of recombinant human topoisomerase 1 assessed as relaxation of supercoiled plasmid pBR322 DNA at 20 uM by agarose gel electrophoresis (reference value: 40.4%)"}, "[19]": {"test_system": "HCT-15", "assay": "Antiproliferative activity against human HCT-15 cells after 72 hrs by EZ-Cytox colorimetric assay", "type": "functional, cell-based", "settings": "HCT-15, 72 h"}, "[20]": {"assay": "Toxicity in mouse assessed as reduction in number of red blood cells at 4 mg/kg administered in combination with 2 mg/kg etoposide", "type": "organism-based", "settings": "in vivo"}, "[21]": {"test_system": "HCT-15", "assay": "Induction of apoptosis in human HCT-15 cells assessed as change in c-PARP level at 2 to 5 uM in presence of 1 nM camptothecin and measured by Western blot analysis", "type": "functional, cell-based", "settings": "dose 2-5 µM"}, "[22]": {"assay": "Genotoxicity in human HCT-15 cells assessed as production of Ub1-gamma-H2AX at 2 to 5 uM and measured in presence of 1 nM camptothecin by western blot analysis", "type": "toxicity, cell-based", "settings": "hct-15, 5 µM, dose 2-5 µM"}, "[23]": {"test_system": "HCT-15", "assay": "Synergistic antiproliferative activity against human HCT-15 cells at 5 uM in presence of 0.2 uM etoposide after 72 hrs by WST-1 assay", "type": "functional, cell-based"}, "[24]": {"assay": "Toxicity in mouse assessed as reduction in number of white blood cells at 4 mg/kg", "type": "organism-based", "settings": "in vivo"}, "[25]": {"test_system": "HCT-15", "assay": "Induction of apoptosis in human HCT-15 cells assessed as change in c-PARP level at 2 to 5 uM in presence of 0.2 uM etoposide and measured by Western blot analysis", "type": "functional, cell-based", "settings": "dose 2-5 µM"}, "[26]": {"test_system": "Calf thymus DNA", "assay": "Binding affinity to calf thymus DNA assessed as DNA intercalation by measuring Stem-Volmer quenching constant at 0.01 to 0.1 uM by Hoechst displacement assay", "type": "nucleic-acid assay", "settings": "Bos taurus; dose 0.01-0.1 µM"}, "[27]": {"test_system": "DU-145", "assay": "Antiproliferative activity against human DU-145 cells after 72 hrs by EZ-Cytox colorimetric assay", "type": "functional, cell-based", "settings": "DU-145, 72 h"}, "[28]": {"test_system": "HCT-15", "assay": "Antitumor activity against human HCT-15 cells xenografted in female BALB/c nude mouse assessed as tumor growth retardation at 4 mg/kg, ip administered every day for 6 days in combination with etoposide at 2 mg/kg, ip administered every day for 6 days", "type": "functional, organism-based", "settings": "time 6.0 day"}, "[29]": {"assay": "Toxicity in mouse assessed as increase in mean corpuscular volume of RBC at 4 mg/kg administered in combination with 2 mg/kg etoposide", "type": "organism-based, Erythrocyte", "settings": "in vivo"}, "[30]": {"assay": "Genotoxicity in human HCT-15 cells assessed as production of gamma-H2AX at 2 to 5 uM and measured by western blot analysis", "type": "toxicity, cell-based", "settings": "hct-15, 5 µM, dose 2-5 µM"}, "[31]": {"target": "T1, DNA topoisomerase 1 (Homo sapiens)", "assay": "Catalytic inhibitor of non-intercalative topoisomerase 1 (unknown origin) assessed as binding to minor groove at 100 to 500 uM measured by cleavage complex assay", "settings": "dose 100-500 µM"}}, "note": "The source made the active and inactive calls. No cut-off for these calls is given here.", "data": [{"smiles": "O=C1c2ccccc2-c2nc(-c3ccc(Br)cc3)cc(-c3ccccc3)c21", "values": [{"measurement": "Activity", "setting": "[1]", "result": "Non-Toxic"}, {"measurement": "Activity", "setting": "[2]", "result": "Active"}, {"measurement": "Activity", "setting": "[3]", "result": "Active"}, {"measurement": "Activity", "setting": "[4]", "result": "Non-Toxic"}, {"measurement": "Activity", "setting": "[5]", "result": "Non-Toxic"}, {"measurement": "Activity", "setting": "[6]", "result": "Non-Toxic"}, {"measurement": "Activity", "setting": "[7]", "result": "Non-Toxic"}, {"measurement": "Activity", "setting": "[8]", "result": "Non-Toxic"}, {"measurement": "Activity", "setting": "[9]", "result": "Non-Toxic"}, {"measurement": "Activity", "setting": "[10]", "result": "Non-Toxic"}, {"measurement": "Activity", "setting": "[11]", "result": "Non-Toxic"}, {"measurement": "Activity", "setting": "[12]", "result": "Non-Toxic"}, {"measurement": "IC50", "setting": "[13]", "result": 32.7, "unit": "µM"}, {"measurement": "IC50", "setting": "[14]", "result": "> 50", "unit": "µM"}, {"measurement": "IC50 at 72 h", "setting": "[15]", "result": "> 10", "unit": "µM"}, {"measurement": "inhibition", "setting": "[16]", "result": 87, "unit": "%"}, {"measurement": "Activity", "setting": "[17]", "result": "Non-Toxic"}, {"measurement": "inhibition", "setting": "[18]", "result": 1.8, "unit": "%"}, {"measurement": "IC50", "setting": "[19]", "result": 7.84, "unit": "µM"}, {"measurement": "Activity", "setting": "[20]", "result": "Non-Toxic"}, {"measurement": "Activity", "setting": "[21]", "result": "Active"}, {"measurement": "Activity", "setting": "[22]", "result": "Non-Toxic"}, {"measurement": "Activity", "setting": "[23]", "result": "Active"}, {"measurement": "Activity", "setting": "[24]", "result": "Non-Toxic"}, {"measurement": "Activity", "setting": "[25]", "result": "Active"}, {"measurement": "KSV", "setting": "[26]", "result": "2.09 10^6/M"}, {"measurement": "IC50", "setting": "[27]", "result": 4.84, "unit": "µM"}, {"measurement": "Activity", "setting": "[28]", "result": "Active"}, {"measurement": "Activity", "setting": "[29]", "result": "Non-Toxic"}, {"measurement": "Activity", "setting": "[30]", "result": "Non-Toxic"}, {"measurement": "inhibition", "setting": "[31]", "result": "Active"}]}]}
